The source made the active and inactive calls. No cut-off for these calls is given here.
Legend:
[1] = tested on: Proto-oncogene tyrosine-protein kinase Src (Homo sapiens), P12931 [T341M,S348C]; assay: Induction of covalent modification of c-Src kinase domain (251 to 533 residues) T338M/S345C mutant (unknown origin) assessed as protein mass increase at 100 uM incubated for 1 hr by mass spectrometry method
[2] = target: Epidermal growth factor receptor (Homo sapiens, UniProt P00533); assay: Inhibition of wild type N-terminal His6-tagged human EGFR kinase domain (702 to 1016 residues) expressed in Sf9 cells pre-incubated for 30 mins before ATP and substrate addition by homogeneous time-resolved FRET assay
Sequence of Epidermal growth factor receptor (Homo sapiens, UniProt P00533) (P00533 whole entry, the tested form may be a part): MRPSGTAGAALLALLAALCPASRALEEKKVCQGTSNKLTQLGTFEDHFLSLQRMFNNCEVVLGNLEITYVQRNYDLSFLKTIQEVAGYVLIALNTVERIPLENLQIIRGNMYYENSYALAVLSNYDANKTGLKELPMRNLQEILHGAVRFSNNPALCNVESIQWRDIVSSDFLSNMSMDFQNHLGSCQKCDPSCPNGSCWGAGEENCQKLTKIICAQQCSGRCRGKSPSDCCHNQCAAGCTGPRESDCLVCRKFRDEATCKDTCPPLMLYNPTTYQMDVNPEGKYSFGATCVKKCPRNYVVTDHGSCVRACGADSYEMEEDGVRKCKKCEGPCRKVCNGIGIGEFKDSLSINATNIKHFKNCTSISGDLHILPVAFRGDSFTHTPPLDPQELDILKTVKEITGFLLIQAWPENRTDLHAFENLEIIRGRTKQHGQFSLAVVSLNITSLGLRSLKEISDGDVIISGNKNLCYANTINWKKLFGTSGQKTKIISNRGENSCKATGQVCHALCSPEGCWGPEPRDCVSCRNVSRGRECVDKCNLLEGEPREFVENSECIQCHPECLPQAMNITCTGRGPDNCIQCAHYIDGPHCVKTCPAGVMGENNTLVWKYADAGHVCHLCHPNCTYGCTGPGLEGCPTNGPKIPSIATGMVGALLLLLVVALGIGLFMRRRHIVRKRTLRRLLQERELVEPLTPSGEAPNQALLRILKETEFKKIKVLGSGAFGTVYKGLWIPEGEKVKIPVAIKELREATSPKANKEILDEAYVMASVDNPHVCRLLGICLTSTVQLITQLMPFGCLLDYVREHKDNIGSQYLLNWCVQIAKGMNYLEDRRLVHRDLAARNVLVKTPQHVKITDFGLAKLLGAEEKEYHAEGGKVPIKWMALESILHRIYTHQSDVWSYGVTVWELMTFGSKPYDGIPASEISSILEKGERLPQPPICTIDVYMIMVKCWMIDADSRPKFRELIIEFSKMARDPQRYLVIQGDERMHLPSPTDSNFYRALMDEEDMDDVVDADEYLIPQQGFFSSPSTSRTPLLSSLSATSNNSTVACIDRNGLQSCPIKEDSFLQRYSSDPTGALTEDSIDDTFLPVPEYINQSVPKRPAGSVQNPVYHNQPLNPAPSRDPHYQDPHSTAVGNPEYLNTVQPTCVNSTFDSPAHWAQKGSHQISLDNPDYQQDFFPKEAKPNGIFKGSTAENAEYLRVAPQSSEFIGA

[3] = target: Epidermal growth factor receptor (Homo sapiens, UniProt P00533, L858R/T790M); assay: Inhibition of GST-tagged human recombinant EGFR catalytic domain (668 to 1210 amino acids) T790M/L858R mutant expressed in Sf9 cells pre-incubated for 30 mins before ATP and substrate addition by homogeneous time-resolved FRET assay
Sequence of Epidermal growth factor receptor (Homo sapiens, UniProt P00533, L858R/T790M) (P00533 25-1210 T790M/L858R limits assumed): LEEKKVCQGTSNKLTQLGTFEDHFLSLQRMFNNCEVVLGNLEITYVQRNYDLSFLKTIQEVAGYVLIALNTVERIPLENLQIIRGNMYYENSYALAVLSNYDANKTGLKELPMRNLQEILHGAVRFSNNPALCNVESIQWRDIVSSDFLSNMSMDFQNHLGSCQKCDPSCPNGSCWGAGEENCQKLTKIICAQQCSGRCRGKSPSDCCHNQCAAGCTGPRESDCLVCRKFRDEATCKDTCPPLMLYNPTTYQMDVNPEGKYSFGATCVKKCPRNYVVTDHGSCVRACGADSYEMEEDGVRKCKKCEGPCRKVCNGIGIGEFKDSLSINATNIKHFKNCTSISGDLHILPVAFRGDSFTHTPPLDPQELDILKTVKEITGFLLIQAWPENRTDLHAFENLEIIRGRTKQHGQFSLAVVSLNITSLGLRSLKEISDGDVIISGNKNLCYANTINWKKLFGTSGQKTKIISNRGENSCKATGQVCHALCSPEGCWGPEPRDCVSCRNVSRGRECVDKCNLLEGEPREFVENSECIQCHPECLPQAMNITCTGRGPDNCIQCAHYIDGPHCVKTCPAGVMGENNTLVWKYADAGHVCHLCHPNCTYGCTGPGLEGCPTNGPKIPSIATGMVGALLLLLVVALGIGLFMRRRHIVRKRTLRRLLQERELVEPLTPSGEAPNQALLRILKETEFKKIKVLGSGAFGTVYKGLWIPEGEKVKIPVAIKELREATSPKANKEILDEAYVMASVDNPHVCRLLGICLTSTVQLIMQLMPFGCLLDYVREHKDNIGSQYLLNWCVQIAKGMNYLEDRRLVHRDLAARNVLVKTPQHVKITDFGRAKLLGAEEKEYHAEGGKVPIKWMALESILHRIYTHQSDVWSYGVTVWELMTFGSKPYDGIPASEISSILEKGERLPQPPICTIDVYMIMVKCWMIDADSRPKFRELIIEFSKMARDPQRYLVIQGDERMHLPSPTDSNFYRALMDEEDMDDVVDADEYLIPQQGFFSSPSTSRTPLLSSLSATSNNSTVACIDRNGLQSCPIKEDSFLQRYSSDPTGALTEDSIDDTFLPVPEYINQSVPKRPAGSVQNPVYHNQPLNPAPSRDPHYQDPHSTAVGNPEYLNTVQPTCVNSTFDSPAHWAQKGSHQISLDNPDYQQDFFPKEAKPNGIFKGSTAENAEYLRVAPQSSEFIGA

[4] = target: Epidermal growth factor receptor (Homo sapiens, UniProt P00533, L858R); assay: Inhibition of GST-tagged human recombinant EGFR catalytic domain (668 to 1210 amino acids) L858R mutant expressed in Sf9 cells pre-incubated for 30 mins before ATP and substrate addition by homogeneous time-resolved FRET assay
Sequence of Epidermal growth factor receptor (Homo sapiens, UniProt P00533, L858R) (P00533 25-1210 L858R limits assumed): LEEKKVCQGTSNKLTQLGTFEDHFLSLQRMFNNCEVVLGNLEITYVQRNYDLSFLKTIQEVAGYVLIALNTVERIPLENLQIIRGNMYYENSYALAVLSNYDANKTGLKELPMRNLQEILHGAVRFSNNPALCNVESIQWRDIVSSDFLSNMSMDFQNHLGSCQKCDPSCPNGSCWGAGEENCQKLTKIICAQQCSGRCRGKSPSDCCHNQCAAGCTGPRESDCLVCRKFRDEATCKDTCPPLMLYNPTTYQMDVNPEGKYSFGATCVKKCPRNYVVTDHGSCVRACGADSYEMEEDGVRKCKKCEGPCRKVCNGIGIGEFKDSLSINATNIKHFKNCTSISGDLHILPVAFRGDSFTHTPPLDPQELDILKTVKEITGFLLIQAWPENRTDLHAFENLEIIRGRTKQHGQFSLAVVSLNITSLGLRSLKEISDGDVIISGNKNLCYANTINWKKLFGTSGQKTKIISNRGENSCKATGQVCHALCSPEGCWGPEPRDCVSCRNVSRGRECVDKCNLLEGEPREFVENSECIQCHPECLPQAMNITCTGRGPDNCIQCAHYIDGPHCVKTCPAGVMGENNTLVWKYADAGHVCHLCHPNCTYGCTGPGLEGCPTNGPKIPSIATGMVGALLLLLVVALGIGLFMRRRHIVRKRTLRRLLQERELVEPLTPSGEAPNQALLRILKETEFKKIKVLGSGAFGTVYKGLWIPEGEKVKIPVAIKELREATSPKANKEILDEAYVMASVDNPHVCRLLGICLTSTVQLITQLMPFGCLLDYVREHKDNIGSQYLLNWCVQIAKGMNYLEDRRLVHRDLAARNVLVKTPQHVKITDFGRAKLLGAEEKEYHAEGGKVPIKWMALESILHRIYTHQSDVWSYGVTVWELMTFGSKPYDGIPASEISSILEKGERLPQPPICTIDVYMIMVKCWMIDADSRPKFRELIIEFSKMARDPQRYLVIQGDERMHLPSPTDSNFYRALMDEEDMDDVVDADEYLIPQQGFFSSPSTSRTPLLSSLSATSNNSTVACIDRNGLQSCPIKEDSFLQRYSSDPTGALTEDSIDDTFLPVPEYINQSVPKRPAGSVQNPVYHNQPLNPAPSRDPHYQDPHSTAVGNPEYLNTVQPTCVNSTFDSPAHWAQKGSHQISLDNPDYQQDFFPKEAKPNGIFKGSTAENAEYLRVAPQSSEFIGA

[5] = target: Proto-oncogene tyrosine-protein kinase Src (Homo sapiens) (UniProt P12931); assay: Induction of covalent modification of wild type c-Src kinase domain (251 to 533 residues) (unknown origin) at 100 uM incubated for 1 hr by mass spectrometry method
[6] = tested on: Proto-oncogene tyrosine-protein kinase Src (Homo sapiens), P12931 [T341M,S348C]; assay: Induction of covalent modification of c-Src kinase domain (251 to 533 residues) T338M/S345C mutant (unknown origin) at 100 uM incubated for 1 hr by mass spectrometry method

SMILES | Activity [1] [Da] | IC50 [2] [nM] | IC50 [3] [nM] | IC50 [4] [nM] | Activity [5] | Activity [6]
COc1cc(N2CCN(C)CC2)ccc1Nc1ncc(Cl)c(Oc2cccc(NC(=O)/C=C/C3CC3)c2)n1 | 537 | 5600 | 830 | 2800 |  | 
COc1cc(N2CCN(C)CC2)ccc1Nc1ncc(Cl)c(Oc2cccc(NC(C)=O)c2)n1 |  | > 10000 | 180 | 490 |  | 
COc1cc(N2CCN(C)CC2)ccc1Nc1ncc(Cl)c(Oc2cccc(NC(=O)/C(C#N)=C/c3ccncc3)c2)n1 |  | 8700 | 37 | 150 |  | 
COc1cc(N2CCN(C)CC2)ccc1Nc1ncc(Cl)c(Oc2cccc(NC(=O)/C(C#N)=C/c3ccco3)c2)n1 |  | > 10000 | 330 | 1300 |  | 
COc1cc(N2CCN(C)CC2)ccc1Nc1ncc(Cl)c(Oc2cccc(NC(=O)/C(C#N)=C/C(C)C)c2)n1 |  | > 10000 | 800 | 1200 |  | 
COc1cc(N2CCN(C)CC2)ccc1Nc1ncc(Cl)c(Oc2cccc(NC(=O)/C(C#N)=C/C3CC3)c2)n1 | 560 |  |  |  | Active | 
COc1cc(N2CCN(C)CC2)ccc1Nc1ncc(Cl)c(Oc2cccc(NC(=O)/C(=C/c3ccc(F)cc3)C(F)(F)F)c2)n1 |  | > 10000 | 6300 | > 10000 |  | 
COc1cc(N2CCN(C)CC2)ccc1Nc1ncc(Cl)c(Oc2cccc(NC(=O)/C(C#N)=C/c3ccc([N+](=O)[O-])cc3)c2)n1 |  | > 10000 | 1200 | 2300 |  | 
COc1cc(N2CCN(C)CC2)ccc1Nc1ncc(Cl)c(Oc2cccc(NC(=O)/C(C#N)=C/c3cccc([N+](=O)[O-])c3)c2)n1 |  | > 10000 | 720 | 1800 |  | 
COc1cc(N2CCN(C)CC2)ccc1Nc1ncc(Cl)c(Oc2cccc(NC(=O)/C(C#N)=C/C3CCCC3)c2)n1 |  | > 10000 | 1200 | 2200 |  | 
COc1cc(N2CCN(C)CC2)ccc1Nc1ncc(Cl)c(Oc2cccc(NC(=O)/C(=C/c3ccc(N(C)C)cc3)C(F)(F)F)c2)n1 |  | > 10000 | 2200 | 6300 |  | 
COc1cc(N2CCN(C)CC2)ccc1Nc1ncc(Cl)c(Oc2cccc(NC(=O)/C(C#N)=C/C(C)(C)C)c2)n1 |  | > 10000 | 400 | 1300 |  | 
COc1cc(N2CCN(C)CC2)ccc1Nc1ncc(Cl)c(Oc2cccc(NC(=O)/C(C#N)=C/c3ccc(SC)cc3)c2)n1 |  | 4800 | 510 | 830 |  | 
COc1cc(N2CCN(C)CC2)ccc1Nc1ncc(Cl)c(Oc2cccc(NC(=O)/C(C#N)=C/c3ccc(N(C)C)cc3)c2)n1 |  | > 10000 | > 10000 | > 10000 |  | 
COc1cc(N2CCN(C)CC2)ccc1Nc1ncc(Cl)c(Oc2cccc(NC(=O)/C(C#N)=C/c3ccc(C#N)cc3)c2)n1 |  | > 10000 | 940 | 1800 |  | 
COc1cc(N2CCN(C)CC2)ccc1Nc1ncc(Cl)c(Oc2cccc(NC(=O)CCC3CC3)c2)n1 |  | > 10000 | 770 | 2000 | inactive | inactive
COc1cc(N2CCN(C)CC2)ccc1Nc1ncc(Cl)c(Oc2cccc(NC(=O)/C(C#N)=C/c3ccc(F)cc3)c2)n1 |  | 7000 | 120 | 540 |  | 

From ChEMBL document CHEMBL3425413, “Structure-based design and synthesis of covalent-reversible inhibitors to overcome drug resistance in EGFR” (Bioorg Med Chem, 2015)
